From EP0046337A2, “Triazole compounds, a process for preparing them, their use as plant and pharmaceutical fungicides and as plant growth regulators and compositions containing them” (IMPERIAL CHEMICAL INDUSTRIES PLC, priority 1980, dated 1982)

Experiments:
Assay type in all cases: in vivo
[1] = tested on: PUCCINIA RECONDITA (WHEAT); experiment: Foliar fungal disease test on plants: Puccinia recondita on wheat; settings: 100 ppm active ingredient spray and root drench approximately 40 ppm a.i./dry soil, one or two days before inoculation, assessed four to fourteen days after inoculation
Method: (§1) The compounds were tested against a variety of foliar fungal diseases of plants. The technique employed was as follows. The plants were grown in John Innes Potting Compost (No 1 or 2) in 4 cm diameter minipots. A layer of fine sand was placed at the bottom of the pots containing the dicotyledonous plants to facilitate uptake of test compound by the roots. The test compounds were formulated either by bead milling with aqueous Dispersol T or as a solution in acetone or acetone/ethanol which was diluted to the required concentration immediately before use. For the foliage diseases, suspensions (100 ppm active ingredient) were sprayed […]. Exceptions to this were the tests on Botrytis cinerea and Venturia inaequalis. The sprays were applied to maximum retention and the root drenches to a final concentration equivalent to approximately 40 ppm a.i./dry soil. Tween 20, to give a final concentration of 0.05%, was added when the sprays were applied to cereals. For most of the tests the compound was applied to the soil (roots) and to the foliage (by spraying) one or two days before the plant was inoculated with the diseases. An exception was the test on Erysiphe graminis in which the plants were inoculated 24 hours before treatment. After inoculation, the plants were put into an appropriate environment to allow infection to take place and then incubated until the disease was ready for assessment. The period between inoculation and assessment varied from four to fourteen days according to the disease and environment. The disease control was recorded by the following grading:- • 4 = no disease • 3 = trace - 5% of disease on untreated plants • 2 = 6-25% of disease on untreated plants • 1 = 26-59% of disease on untreated plants • 0 = 60-100% of disease on untreated plants

BOTRYTIS CINEREA (GRAPE) = experiment: Foliar fungal disease test on plants: Botrytis cinerea on grape; settings: 100 ppm active ingredient, named as an exception to the usual way of application, treatment one or two days before inoculation
Method: as §1, with “For most of the tests the compound was applied to the soil (roots) and to the foliage (by spraying) one or two days before the plant was inoculated with the diseases. An exception was the test on Erysiphe graminis in which the plants were inoculated 24 hours before treatment.” left out, “The period between inoculation and assessment varied from four to fourteen days according to the disease and environment.” left out

[2] = tested on: CERCOSPORA ARACHIDICOLA (PEANUT); experiment: Foliar fungal disease test on plants: Cercospora arachidicola on peanut; settings: 100 ppm active ingredient spray and root drench approximately 40 ppm a.i./dry soil, one or two days before inoculation
Method: as §1

[3] = tested on: ERYSIPHE GRAMINIS (BARLEY); experiment: Foliar fungal disease test on plants: Erysiphe graminis on barley; settings: 100 ppm active ingredient spray and root drench approximately 40 ppm a.i./dry soil, plants inoculated 24 hours before treatment
Method: as §1

[4] = tested on: VENTURIA INEQUALIS (APPLE); experiment: Foliar fungal disease test on plants: Venturia inaequalis on apple; settings: 100 ppm active ingredient, named as an exception to the usual way of application, treatment one or two days before inoculation
Method: as §1

SMILES | disease control grading, PUCCINIA RECONDITA (WHEAT) [1] | disease control grading, BOTRYTIS CINEREA (GRAPE) (BOTRYTIS CINEREA (GRAPE)) | disease control grading, CERCOSPORA ARACHIDICOLA (PEANUT) [2] | disease control grading, ERYSIPHE GRAMINIS (BARLEY) [3] | disease control grading, VENTURIA INEQUALIS (APPLE) [4]
OC(Cn1cnnc1)(c1ccc(Cl)s1)c1ccc(Cl)cc1Cl (centres unmarked) [Compound 11B, 1-(1,2,4-Triazol-4-yl)-2-(2,4-dichlorophenyl)-2-(5-chloro-thlen-2-yl) ethan-2-ol] | 4 (4 = no disease) | 0 (0 = 60-100% of disease on untreated plants) | 1 (1 = 26-59% of disease on untreated plants) | 4 (4 = no disease) | 1 (1 = 26-59% of disease on untreated plants)
OC(Cn1cncn1)(c1ccccc1)c1cccs1 (centres unmarked) [Compound 1A, 1-(1,2,4-Triazol-1-yl)-2-phenyl-2-(2-thienyl)ethan-2-ol] | 3 (3 = trace - 5% of disease on untreated plants) | 0 (0 = 60-100% of disease on untreated plants) | 0 (0 = 60-100% of disease on untreated plants) | 4 (4 = no disease) | 0 (0 = 60-100% of disease on untreated plants)
OC(Cn1cncn1)(c1ccc(Cl)s1)c1ccc(Cl)cc1Cl (stereo not drawn) [Compound 11A, 1-(1,2,4-Triazol-l-yl)-2-(2,4-dichloroplienyl)-2-(5-chlorothien-2-yl) ethan-2-ol] | 4 (4 = no disease) | – | 3 (3 = trace - 5% of disease on untreated plants) | 4 (4 = no disease) | 4 (4 = no disease)
